Data on 27 molecules can be found in patent US9657006B2, “Macrocyclic factor VIIa inhibitors” (BRISTOL-MYERS SQUIBB COMPANY, priority 2013, dated 2017).

Counter-ions that a name gives are not always drawn.

T1 sequence (P08709 213-466 limits assumed): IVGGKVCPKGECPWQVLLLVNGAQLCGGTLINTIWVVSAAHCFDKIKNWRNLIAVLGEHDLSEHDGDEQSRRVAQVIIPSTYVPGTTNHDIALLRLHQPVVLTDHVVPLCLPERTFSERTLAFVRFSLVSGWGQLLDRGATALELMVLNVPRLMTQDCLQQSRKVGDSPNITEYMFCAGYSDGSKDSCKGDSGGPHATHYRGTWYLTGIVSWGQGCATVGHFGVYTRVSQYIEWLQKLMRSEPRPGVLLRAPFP
T1 sequence (P08709 61-212 limits assumed): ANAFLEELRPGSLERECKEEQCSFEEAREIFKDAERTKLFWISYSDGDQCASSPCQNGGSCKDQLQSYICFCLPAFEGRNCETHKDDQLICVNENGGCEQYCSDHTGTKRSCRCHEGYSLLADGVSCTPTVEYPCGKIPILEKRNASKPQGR
T1 sequence (P13726 33-295 partner): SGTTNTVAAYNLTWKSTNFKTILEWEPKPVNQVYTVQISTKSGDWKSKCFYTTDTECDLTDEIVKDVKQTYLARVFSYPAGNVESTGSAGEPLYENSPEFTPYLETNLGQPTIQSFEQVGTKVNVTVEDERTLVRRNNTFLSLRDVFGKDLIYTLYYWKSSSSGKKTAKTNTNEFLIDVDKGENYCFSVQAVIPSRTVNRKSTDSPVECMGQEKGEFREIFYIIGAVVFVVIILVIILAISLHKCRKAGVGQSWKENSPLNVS

The experiment concerns the target T1, FVIIa (Homo sapiens, UniProt P08709).
T1 construct: with about 1% of the total amount in the proteolytically active form factor VIIa
In words: FVIIa Ki (25° C.): FVIIa peptide substrate assay. The class given is biochemical. As to conditions: S2288 peptide substrate, full-length human TF. As to the method: The effectiveness of compounds of the present invention as inhibitors of the coagulation Factors, VIIa, IXa, Xa, XIa, XIIa, plasma kallikrein or thrombin, tissue kallikrein and activated protein C, can be determined using a relevant purified serine protease, respectively, and an appropriate synthetic substrate. The rate of hydrolysis of the chromogenic or fluorogenic substrate by the relevant serine protease was measured both in the absence and presence of compounds of the present invention. […] A decrease in the rate of absorbance or fluorescence change in the presence of inhibitor is indicative of enzyme inhibition. Such methods are known to one skilled in the art. The results of this assay are expressed as the inhibitory constant, Ki.
a. FVIIa Ki (25° C.): FVIIa Peptide Substrate Assay
S2288 (range of concentrations) and FVIIa inhibitor were incubated for 15 minutes (min) at 25° C. Reactions were initiated by addition of a solution of full-length human TF (6 nM), FVIIa (0.75 nM), and PCPS (25 μM). FVIIa hydrolyses S2288, which was monitored for up to 60 min at 405 nm. Steady-state reaction velocity data (vs) was globally fit to Equation 1 for competitive inhibition. vs=Vmax[S]/([S]+Km(1+[I]/Ki)) (Eq. 1) where Vmax is maximum velocity, [S] is substrate concentration, Km is the Michaelis-Menten constant, [I] is the inhibitor concentration, and Ki is the inhibitor dissociation constant (GraFit, version 5, Erithacus Software Ltd, West Sussex, UK).
As usually defined, the Ki is a measure of affinity in units of concentration, obtained from inhibition or displacement. Read a high Ki as lower affinity. In the case of `CC(C)COc1ccc2cc1CCC(=O)Nc1ccc(S(=O)(=O)C3CC3)c(c1)CN(C)C(=O)[C@@H]2Nc1ccc2c(N)ncc(F)c2c1` [Example 24, (R)-11-(1-Amino-4-fluoro-isoquinolin-6-ylamino)-16-cyclopropanesulfonyl-7-isobutoxy-13-methyl-2,13-diaza-tricyclo[13.3.1.1^6,10]icosa-1(19),6,8,10(20),15,17-hexaene-3,12-dione trifluroracetic acid salt], the Ki came out at 5 nM.
For `COc1ccc2cc1CCC(=O)Nc1ccc(S(=O)(=O)C3CC3)c(c1)CN(C)C(=O)[C@@H]2Nc1ccc2c(N)ncc(F)c2c1` (single isomer, unassigned) [Example 11], affinity was put at a Ki of 5 nM. That is a single-digit nanomolar value.
As to `CN1Cc2cc(ccc2S(=O)(=O)C2CC2)NC(=O)OCC2(CC2)c2cccc(c2)C(Nc2ccc3c(N)nccc3c2)C1=O` (stereo not drawn) [Example 5, trifluoroacetic acid salt], the Ki stood at 950 nM.
Take `CN1Cc2cc(ccc2S(=O)(=O)C2CC2)NC(=O)OCCc2cccc(c2)[C@@H](Nc2ccc3c(N)nccc3c2)C1=O` [Example 1, (R)-5-(1-Amino-isoquinolin-6-ylamino)-19-cyclopropanesulfonyl-3-methyl-13-oxa-3,15-diaza-tricyclo[14.3.1.1^6,10]henicosa-1(19),6(21),7,9,16(20),17-hexaene-4,14-dione trifluoroacetic acid salt+Enantiomer]: the Ki was determined as 188 nM.
The molecule `CN1Cc2cc(ccc2S(=O)(=O)C2CC2)NC(=O)OCC(C)(C)c2cccc(c2)[C@@H](Nc2ccc3c(N)nccc3c2)C1=O` (single isomer, unassigned) [Example 4] returned a Ki of 1480 nM.
`COc1c(F)cc2cc1CCC(=O)Nc1ccc(S(=O)(=O)C3CC3)c(c1)CN(C)C(=O)[C@@H]2Nc1ccc2c(N)ncc(F)c2c1` (single isomer, unassigned) [Example 30]: the inhibition constant (Ki) came to 10 nM. Against the preceding molecule, the Ki is about 150-fold lower.
On to `CC(C)Oc1ccc2cc1CCC(=O)Nc1ccc(S(=O)(=O)C3CC3)c(c1)CN(C)C(=O)[C@@H]2Nc1ccc2c(N)ncc(F)c2c1` [Example 26, (R)-11-(1-Amino-4-fluoro-isoquinolin-6-ylamino)-16-cyclopropanesulfonyl-7-isopropoxy-13-methyl-2,13-diaza-tricyclo[13.3.1.1^6,10]icosa-1(19),6,8,10(20),15,17-hexaene-3,12-dione trifluroracetic acid salt], for which the inhibition constant Ki stood at 5 nM.
Consider `CN1CCc2cccc(c2)[C@@H](Nc2ccc3c(N)ncc(F)c3c2)C(=O)N(C)Cc2cc(ccc2S(=O)(=O)C2CC2)NC1=O` (single isomer, unassigned) [Example 28], for which the Ki is 14 nM.
“4-((R)-16-Difluoromethoxy-17-fluoro-3,12-dioxo-2,13-diaza-tricyclo[13.3.1.1^6,10]icosa-1(19),6,8,10(20),15,17-hexaen-11-ylamino)-benzamidine trifluoroacetic acid salt [Example 37]” had a Ki of 11 nM.
`C[C@@H]1CC(=O)Nc2ccc(S(=O)(=O)C3CC3)c(c2)CN(C)C(=O)[C@H](Nc2ccc3c(N)ncc(F)c3c2)c2ccc(OCC(F)F)c1c2` (single isomer, unassigned) [Example 38, trifluoroacetic acid salt] returned an inhibitory constant (Ki) of 5 nM.
`CN1Cc2cc(ccc2S(=O)(=O)C2CC2)NC(=O)CCc2cc(ccc2OCC2CCC2)[C@@H](Nc2ccc3c(N)ncc(F)c3c2)C1=O` [Example 25, (R)-11-(1-Amino-4-fluoro-isoquinolin-6-ylamino)-7-cyclobutylmethoxy-16-cyclopropanesulfonyl-13-methyl-2,13-diaza-tricyclo[13.3.1.1^6,10]icosa-1(19),6,8,10(20),15,17-hexaene-3,12-dione trifluroracetic acid salt] returned a Ki of 6 nM. The Ki values of the last two molecules are within 1.5-fold of each other.
As to `COc1ccc2cc1COCC(=O)Nc1ccc(S(=O)(=O)C3CC3)c(c1)CN(C)C(=O)[C@@H]2Nc1ccc2c(N)nccc2c1` [Example 9, (R)-5-(1-Amino-isoquinolin-6-ylamino)-19-cyclopropanesulfonyl-9-methoxy-3-methyl-12-oxa-3,15-diaza-tricyclo[14.3.1.1^6,10]henicosa-1(19),6(21),7,9,16(20),17-hexaene-4,14-dione trifluoroacetic acid salt+Enantiomer], the affinity, expressed as Ki, was 23 nM. Against the preceding molecule, the Ki is about 3.8-fold higher.
With `COc1ccc2cc1[C@H](C)CN(C)C(=O)Nc1ccc(S(=O)(=O)C3CC3)c(c1)CN(C)C(=O)C2Nc1ccc2c(N)nccc2c1` (mixture of isomers) [Example 12, (S)-5-(1-Amino-isoquinolin-6-ylamino)-19-cyclopropanesulfonyl-9-methoxy-3,11,13-trimethyl-3,13,15-triaza-tricyclo[14.3.1.1^6,10]henicosa-1(20),6(21),7,9,16,18-hexaene-4,14-dione trifluoroacetic acid salt], the Ki was 47 nM.
Take `CN1CCc2cccc(c2)[C@@H](Nc2ccc(C(=N)N)cc2)C(=O)N(C)Cc2cc(cc(F)c2OC(F)F)NC1=O` (single isomer, unassigned) [Example 35, trifluoroacetic acid salt]: the Ki stood at 6 nM.
For the molecule `CN1Cc2cc(ccc2S(=O)(=O)C2CC2)NC(=O)CCc2cccc(c2)[C@@H](Nc2ccc3c(N)ncc(F)c3c2)C1=O` (single isomer, unassigned) [Example 17], affinity was put at a Ki of 7 nM.
As for `C[C@@H]1CC(=O)Nc2ccc(OC(F)F)c(c2)CN(C)C(=O)[C@H](Nc2ccc(C(=N)N)cc2)c2ccc(OCC(F)F)c1c2` (single isomer, unassigned) [Example 43, trifluoroacetic acid salt], the affinity, expressed as Ki, was 5 nM.
As for “(R)-11-(1-Amino-4-fluoro-isoquinolin-6-ylamino)-16-cyclopropane sulfonyl-7-(2,2-difluoro-ethoxy)-13-methyl-2,13-diaza-tricyclo[13.3.1.1^6,10]icosa-1(18),6,8,10(20),15(19),16-hexaene-3,12-dione trifluoroacetic acid salt [Example 33]”, the affinity, expressed as Ki, was 21 nM.
`CN1Cc2cc(ccc2S(=O)(=O)C2CC2)NC(=O)CCc2cc(ccc2OCC2CC2)[C@@H](Nc2ccc3c(N)ncc(F)c3c2)C1=O` [Example 22, (R)-11-(1-Amino-4-fluoro-isoquinolin-6-ylamino)-16-cyclopropane sulfonyl-7-cyclopropylmethoxy-13-methyl-2,13-diaza-tricyclo[13.3.1.1^6,10]icosa-1(19),6,8,10(20),15,17-hexaene-3,12-dione trifluroracetic acid salt] returned a Ki of 5 nM. This Ki lies about 4.2-fold lower than the previous one.
For `CCCCOc1ccc2cc1CCC(=O)Nc1ccc(S(=O)(=O)C3CC3)c(c1)CN(C)C(=O)[C@@H]2Nc1ccc2c(N)ncc(F)c2c1` [Example 23, (R)-11-(1-Amino-4-fluoro-isoquinolin-6-ylamino)-7-butoxy-16-cyclopropanesulfonyl-13-methyl-2,13-diaza-tricyclo[13.3.1.1^6,10]icosa-1(19),6,8,10(20),15,17-hexaene-3,12-dione trifluroracetic acid salt] the value was 5 nM.
For `CN1Cc2cc(ccc2S(=O)(=O)C2CC2)NC(=O)CCc2cc(ccc2F)[C@@H](Nc2ccc3c(N)ncc(F)c3c2)C1=O` (single isomer, unassigned) [Example 14] the value was 5 nM; for `CN1Cc2cc(ccc2S(=O)(=O)C2CC2)NC(=O)N(Cc2ccccc2)CCc2cccc(c2)[C@@H](Nc2ccc3c(N)ncc(F)c3c2)C1=O` (single isomer, unassigned) [Example 29], 80 nM.
`COc1cc2cc(c1)[C@@H](Nc1ccc3c(N)ncc(F)c3c1)C(=O)N(C)Cc1cc(ccc1S(=O)(=O)C1CC1)NC(=O)CC2` (single isomer, unassigned) [Example 15] came in with a Ki of 6 nM.
In turn, “(R)-11-(5-Amino-8-fluoro-naphthalen-2-ylamino)-16-cyclopropanesulfonyl-7-cyclopropyl-13-methyl-2,13-diaza-tricyclo[13.3.1.1^6,10]icosa-1(18),6,8,10(20),15(19),16-hexaene-3,12-dione trifluoroacetic acid salt [Example 36]” registered an inhibition constant Ki of 5 nM.
For the molecule `COc1ccc2cc1CCC(=O)Nc1ccc(S(=O)(=O)C(F)(F)F)c(c1)CN(C)C(=O)[C@@H]2Nc1ccc2c(N)nccc2c1` (single isomer, unassigned) [Example 34, trifluoroacetic acid salt], the affinity, expressed as Ki, was 5 nM.
`CN1Cc2cc(cc(F)c2OC(CF)CF)NC(=O)CCc2cc(ccc2OCC(F)F)[C@@H](Nc2ccc(C(=N)N)cc2)C1=O` (single isomer, unassigned) [Example 42, trifluoroacetic acid salt] displayed an inhibitory constant (Ki) of 5 nM.
In turn, `CN1Cc2cc(ccc2S(=O)(=O)C2CC2)NC(=O)OCc2cccc(c2)[C@@H](Nc2ccc3c(N)nccc3c2)C1=O` (single isomer, unassigned) [Example 3] showed an inhibition constant Ki of 560 nM.
`CN1Cc2cc(ccc2S(=O)(=O)C2CC2)NC(=O)CCc2cc(ccc2OCC(F)F)[C@@H](Nc2ccc3c(N)ncc(F)c3c2)C1=O` [Example 21, (R)-11-(1-Amino-4-fluoro-isoquinolin-6-ylamino)-16-cyclopropane sulfonyl-7-(2,2-difluoro-ethoxy)-13-methyl-2,13-diaza-tricyclo[13.3.1.1^6,10]icosa-1(19),6,8,10(20),15,17-hexaene-3,12-dione trifluroracetic acid salt] returned a Ki of 5 nM.
